In patent US20040048814A1, “Sustained release composition contraining clarithromycin” (priority 2000, published 2004):
Where two headings read alike, the source gives them in different places.

Experiments:
[1] = cited from earlier work
[2] = cited from earlier work; remark: listed apart in the source
[3] = In vitro dissolution test, paddle apparatus, pH 5.0 phosphate buffer; format: physicochemical; details: pH 5.0, 100 rpm, 900 ml
Excerpt: The dissolution test is usually the most appropriate analytical tool to assess the quality of the oral formulations and especially of sustained release oral formulations.

% of dissolved clarithromycin ([3]; after 5 minutes, amount of coating 12% of the weight of the core): about 40%
% of dissolved clarithromycin ([3]; after 5 minutes, amount of coating 14% of the weight of the core): about 20%
% of dissolved clarithromycin ([3]; after about 5 minutes, amount of coating 10% of the weight of the core): about 80%
Structure (SMILES): CC[C@H]1OC(=O)[C@H](C)[C@@H](O[C@H]2C[C@@](C)(OC)[C@@H](O)[C@H](C)O2)[C@H](C)[C@@H](O[C@@H]2O[C@H](C)C[C@H](N(C)C)[C@H]2O)[C@](C)(OC)C[C@@H](C)C(=O)[C@H](C)[C@@H](O)[C@]1(C)O [clarithromycin, Clarithromycin]
water solubility ([1]; pH below 5): good and quite constant
solubility ([1]; pH greater than 5): decreases dramatically
solubility ([1]; pH=8): quasi nil
increase of bioavailability by food intake (mean) ([2]; food intake immediately before administration): 25%
time to achieve peak blood concentrations ([2]; oral administration): about 2 hours
availability after an oral dose ([2]; oral dose of 250 mg): ~55%
